Assay results reported in US20210069275A1, “TRADITIONAL CHINESE MEDICINE COMPOSITION FOR IMPROVING BONE HEALTH AND PREPARATION AND USES THEREOF” (Chenland Nutritionals Inc., priority 2020, published 2021).
Marks after values point to notes of the source that are not given here.

Columns and labels:
Format in all cases: in vivo, rat
[1] = system: osteoporosis model rats; test: Serum estrogen indicators (E2, FSH) by ELISA in osteoporosis model rats; settings: bilateral ovariectomy female SD rats, intragastric once a day, 8 weeks, 10 mg/kg
Procedure: (§1) Samples: the traditional Chinese medicine (TCM) composition prepared in Example 1, a positive drug (Estradiol Valerate) and a competing drug (Caltrate).
(§2) Female SD rats were randomly divided into sham operation group, model group, positive control group (estradiol valerate), competing drug group (Caltrate), high dose TCM composition (prepared in Example 1) group and low dose TC′M composition (prepared in Example 1) group, and 8 in each group.
(§3) Female SD rats were treated by bilateral ovariectomy to establish osteoporosis model rats.
(§4) The osteoporosis model rats were subjected to intragastric administration once a day and the administration cycle lasted for 8 weeks.
(§5) After 8 weeks, the rats were sacrificed, and blood was collected from the abdominal aorta and subjected to standing for 1 hour. Then the blood sample was centrifuged to collect serum, which was detected for the bone metabolic biochemical indicators, including bone glaprotein (BGP), bone specific alkaline phosphatase (BALP), carboxyterminal propeptide of type I procollagen (PICP) and N-telopeptides of type I collagen (NTX); estrogen indicators, including serum estradiol E2 and follicle stimulating hormone (FSH); and blood biochemical indexes, including serum phosphorus and serum calcium. […]
(§6) The dosage for rats was calculated as follows: • dosage for rat (daily dose for human/60)*6;

[2] = system: osteoporosis model rats; test: Bone density parameters of right femur in osteoporosis model rats; settings: bilateral ovariectomy female SD rats, intragastric once a day, 8 weeks, femoral metaphysis, 10 mg/kg
Procedure: as §1, §2, §3, §4
(§7) After 8 weeks, the rats were sacrificed, and blood was collected from the abdominal aorta and subjected to standing for 1 hour. Then the blood sample was centrifuged to collect serum, which was detected for the bone metabolic biochemical indicators, including bone glaprotein (BGP), bone specific alkaline phosphatase (BALP), carboxyterminal propeptide of type I procollagen (PICP) and N-telopeptides of type I collagen (NTX); estrogen indicators, including serum estradiol E2 and follicle stimulating hormone (FSH); and blood biochemical indexes, including serum phosphorus and serum calcium. Moreover, the complete bilateral femurs were collected, on which the muscle tissues were, completely removed. The left femur was used for femoral mechanical testing, and the right femur was tested for related parameters such as bone density. The above experimental data was used to evaluate the efficacy of the TCM composition of the disclosure.
(§8) The dosage of the TCM composition was determined based on the recommended crude drug dosage in the pharmacopoeia, and 1 g of extract was obtained after the extraction.
(§9) Positive control group: 0.1 g/day for human.
(§10) Competing drug group (Caltrate): one tablet (1 g)/day and 600 mg of calcium/tablet.
(§11) High dose TCM composition group: 1 g/day for human; low dose TCM composition group: 0.5 g/day for human.
as §6

[3] = system: osteoporosis model rats; test: Serum biochemical indexes (phosphorus, calcium) in osteoporosis model rats
Procedure: as §1, §2, §3, §4, §7, §8, §9, §10, §11, §6

[4] = system: osteoporosis model rats; test: Femoral mechanical testing (left femur) in osteoporosis model rats; settings: bilateral ovariectomy female SD rats, intragastric once a day, 8 weeks, 10 mg/kg
Procedure: as §1, §2, §3, §4, §5, §6

[5] = system: osteoporosis model rats; test: Bone metabolic biochemical indicators (BGP, BALP, PICP, NTX) by ELISA in osteoporosis model rats; settings: bilateral ovariectomy female SD rats, intragastric once a day, 8 weeks, serum, 10 mg/kg
Procedure: as §1, §2, §3, §4, §7, §8, §9, §10, §11, §6

[6] = bilateral ovariectomy female SD rats, intragastric once a day, 8 weeks, 10 mg/kg

For `CCCCC(=O)O[C@H]1CC[C@H]2[C@@H]3CCc4cc(O)ccc4[C@H]3CC[C@]12C` [Positive control, Estradiol Valerate], the “E2 (serum estradiol)” value [1] was 32.45 ± 10.24 pg/mL, the FSH [1] was 96.55 ± 11.84 ng/mL and the “BMD (bone mineral density)” value [2] was 0.198 ± 0.051 g/cm^2. The “BV/TV (bone volume fraction)” value [2] was 16.863 ± 5.237 %, the “Tb. N (trabecular number)” value [2] was 2.392 ± 0.809* 1/mm and the “Tb. Sp (trabecular separation/spacing)” value [2] was 455.6 ± 182.901 μm. The “Ca (serum calcium)” value [3, 6] was 2.33 ± 0.13 mmol/L, the “P (serum phosphorus)” value [3, 6] was 3.1 ± 0.53 mmol/L and the “serum phosphorus content compared to the model group and the sham-operation group” value ([3]; positive control group, 8 weeks' administration, P<0.05) was “significantly higher”. The “Load (maximum load of femur)” value [4] was 109.67 ± 26.78 N, the “BALP (bone specific alkaline phosphatase)” value [5] was 764.2 ± 123.81 pg/mL and the “BGP (bone glaprotein)” value [5] was 9.93 ± 2.23 ng/mL. For the same molecule, the “NTX (N-telopeptides of type I collagen)” value [5] was 26.92 ± 5.68 ng/mL and the “PICP (carboxyterminal propeptide of type I procollagen)” value [5] was 739.33 ± 175.34 ng/mL.
